Data from PubChem BioAssay AID2060510 (Molecular Pharmacology Branch, DTP, NCI, 2025).

Tested on: 439559-082-T-J2-PDC spheroids viability
Test: Anticancer human tumor 439559-082-T-J2-PDC patient-derived colon adenocarcinoma cell line growth inhibition [GQUAD]
Settings: for IC50: curve of first compound; for viability, T/C: stronger effect = lower value
Summary of the method: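 Multi-cell-type spheroids of tumor cells with HUVEC and mesenchymal stem cells, treated with drug combinations. Concentrations descend in half-log steps from near clinical Cmax, or from 10 microM where Cmax is unknown; viability read-out.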

[1] = second compound 0.0316 µM, first compound 0.0316 µM
[2] = second compound 0.0316 µM, first compound 0.1 µM
[3] = second compound 0.0316 µM, first compound 0.316 µM
[4] = second compound 0.0316 µM, first compound 1 µM
[5] = second compound 0.0316 µM, first compound 3.16 µM
[6] = second compound 0.0316 µM, first compound 10 µM
[7] = second compound 0.1 µM, first compound 0.0316 µM
[8] = second compound 0.1 µM, first compound 0.1 µM
[9] = second compound 0.1 µM, first compound 0.316 µM
[10] = second compound 0.1 µM, first compound 1 µM
[11] = second compound 0.1 µM, first compound 3.16 µM
[12] = second compound 0.1 µM, first compound 10 µM
[13] = second compound 0.316 µM, first compound 0.0316 µM
[14] = second compound 0.316 µM, first compound 0.1 µM
[15] = second compound 0.316 µM, first compound 0.316 µM
[16] = second compound 0.316 µM, first compound 1 µM
[17] = second compound 0.316 µM, first compound 3.16 µM
[18] = second compound 0.316 µM, first compound 10 µM
[19] = second compound 1 µM, first compound 0.0316 µM
[20] = second compound 1 µM, first compound 0.1 µM
[21] = second compound 1 µM, first compound 0.316 µM
[22] = second compound 1 µM, first compound 1 µM
[23] = second compound 1 µM, first compound 3.16 µM
[24] = second compound 1 µM, first compound 10 µM
[25] = second compound 3.16 µM, first compound 0.0316 µM
[26] = second compound 3.16 µM, first compound 0.1 µM
[27] = second compound 3.16 µM, first compound 0.316 µM
[28] = second compound 3.16 µM, first compound 1 µM
[29] = second compound 3.16 µM, first compound 3.16 µM
[30] = second compound 3.16 µM, first compound 10 µM
[31] = second compound 10 µM, first compound 0.0316 µM
[32] = second compound 10 µM, first compound 0.1 µM
[33] = second compound 10 µM, first compound 0.316 µM
[34] = second compound 10 µM, first compound 1 µM
[35] = second compound 10 µM, first compound 3.16 µM
[36] = second compound 10 µM, first compound 10 µM
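Also: spheroids exposed to the agents for 7 days before readout.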
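For viability, T/C in this document: percent of luminescence signal in DMSO vehicle wells taken as 100% viability.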

In the case of `C=CCn1c(=O)c2cnc(Nc3ccc(N4CCN(C)CC4)cc3)nc2n1-c1cccc(C(C)(C)O)n1` + CN(C)c1ccc(Nc2c3ccc(NC(=O)CCN4CCCC4)cc3nc3cc(NC(=O)CCN4CCCC4)ccc23)cc1, the IC50 (second compound 0.0316 µM) is reported as 4.71 µM, the IC50 (second compound 0.1 µM) is reported as 3.41 µM and the IC50 (second compound 0.316 µM) is reported as 4.01 µM. It also gave an IC50 (second compound 1 µM) of 3.54 µM, an IC50 (second compound 3.16 µM) of 4.04 µM and an IC50 (second compound 10 µM) of 3.41 µM. For the same compound, the viability, T/C [1] was 95%, the viability, T/C [2] was 89.5% and the viability, T/C [3] was 85.1%. The viability, T/C [4] was 82.1%, the viability, T/C [5] was 63.3% and the viability, T/C [6] was 24.8%. The viability, T/C [7] was 94.7%, the viability, T/C [8] was 97.9% and the viability, T/C [9] was 85%. It also gave a viability, T/C [10] of 69.4%, a viability, T/C [11] of 54.4% and a viability, T/C [12] of 20.9%. It also gave a viability, T/C [13] of 99.3%, a viability, T/C [14] of 101% and a viability, T/C [15] of 82.7%. The viability, T/C [16] was 81%, the viability, T/C [17] was 55.7% and the viability, T/C [18] was 24.5%. For the same compound, the viability, T/C [19] was 101%, the viability, T/C [20] was 96.7% and the viability, T/C [21] was 88.6%. The viability, T/C [22] was 74.9%, the viability, T/C [23] was 54.5% and the viability, T/C [24] was 18.2%. For the same compound, the viability, T/C [25] was 96.2%, the viability, T/C [26] was 97.8% and the viability, T/C [27] was 93.9%. It also gave a viability, T/C [28] of 89.3%, a viability, T/C [29] of 58.5% and a viability, T/C [30] of 18.2%. It also gave a viability, T/C [31] of 94.3%, a viability, T/C [32] of 90.9% and a viability, T/C [33] of 78.2%. The viability, T/C [34] was 76.2%, the viability, T/C [35] was 53.1% and the viability, T/C [36] was 13.3%.
With `CC(C)(O)C1CCC(Nc2ccc3ncc(-c4cccc(C(F)(F)F)c4)n3n2)CC1` (centres undefined) + CN(C)c1ccc(Nc2c3ccc(NC(=O)CCN4CCCC4)cc3nc3cc(NC(=O)CCN4CCCC4)ccc23)cc1 the IC50 (second compound 0.0316 µM) was 1.6 µM, the IC50 (second compound 0.1 µM) was 1.65 µM and the IC50 (second compound 0.316 µM) was 1.82 µM. It also gave an IC50 (second compound 1 µM) of 1.66 µM, an IC50 (second compound 3.16 µM) of 1.78 µM and an IC50 (second compound 10 µM) of 1.58 µM. For the same compound, the viability, T/C [1] was 92.7%, the viability, T/C [2] was 94.7% and the viability, T/C [3] was 94%. The viability, T/C [4] was 78.1%, the viability, T/C [5] was 8.9% and the viability, T/C [6] was 9%. The viability, T/C [7] was 117%, the viability, T/C [8] was 111% and the viability, T/C [9] was 108%. The viability, T/C [10] was 77.5%, the viability, T/C [11] was 13.9% and the viability, T/C [12] was 10.1%. The viability, T/C [13] was 104%, the viability, T/C [14] was 96.9% and the viability, T/C [15] was 91.8%. For the same compound, the viability, T/C [16] was 90.3%, the viability, T/C [17] was 12.7% and the viability, T/C [18] was 10.6%. The viability, T/C [19] was 98.8%, the viability, T/C [20] was 101% and the viability, T/C [21] was 107%. The viability, T/C [22] was 82.1%, the viability, T/C [23] was 7.17% and the viability, T/C [24] was 11.9%. For the same compound, the viability, T/C [25] was 98.8%, the viability, T/C [26] was 101% and the viability, T/C [27] was 103%. For the same compound, the viability, T/C [28] was 89%, the viability, T/C [29] was 7.84% and the viability, T/C [30] was 13.6%. The viability, T/C [31] was 100%, the viability, T/C [32] was 110% and the viability, T/C [33] was 109%. For the same compound, the viability, T/C [34] was 77.1%, the viability, T/C [35] was 9.39% and the viability, T/C [36] was 7.34%.
